Source: a melting point compilation (Tetko et al.; mined from patent text by program, amines drawn as free bases though some values may be those of a salt)

SMILES | melting point [°C]
CCCCCc1ccc(CCc2ccc(-c3ccc(CC)cc3F)cc2)cc1 | 40
O=C1Cc2c3c(cc4ccccc24)N(c2ccccc2)C(=O)CN13 | 296 to 300
C[C@@H](NC(=O)c1c(N)cc(Cl)cc1Cl)c1ccccc1 | 115 to 119
CCOC(=O)c1cc2cc([N+](=O)[O-])cc(C)c2o1 | 125 to 126
CCOC(=O)C(C)(C)OC(=O)c1cc(-n2c(=O)cc(C(F)(F)C(F)(F)F)[nH]c2=O)ccc1Cl | 141 to 143
CSc1sc(NC(=O)OC(C)(C)C)c(NC(=O)OC(C)(C)C)c1C#N | 156 to 157
COc1ccc(C)cc1NC(=O)Nc1ccc2c(c1)CCN(C(=O)Nc1ccc(OCCO)cc1C(F)(F)F)C2 | 122 to 124
COc1cc2c(cc1OC)CC(=O)NC=C2 | 234 to 237
O=Cc1cccc2ccc(F)cc12 | 95 to 96
CCCCC(CC)Nc1cc(C)nc(Cl)c1[N+](=O)[O-] (stereo not drawn) | 48 to 49
CN1N=C(c2ccc(F)cc2)c2ccc(F)cc2CS1(=O)=O | 205 to 206
NC(=O)c1nc(-c2ccccc2)c(-c2ccc(=O)[nH]n2)s1 | > 250
Oc1ccc(C2(c3ccc(O)cc3)CCCCC2)cc1 | 181 to 182
CCc1[nH]n(C2CCCC2)c2nc(-c3cccc(OC4CCCCN(C)C4)c3)nc(=O)c1-2 (stereo not drawn) | 195 to 196
CC(C)Nc1ccc(O)cc1 | 143
O=C(O)Cc1ccc(OCCNC(=O)C2Cc3ccccc3N2S(=O)(=O)c2ccc(-c3cc(C(F)(F)F)ccc3Cl)cc2)cc1 (stereo not drawn) | 84
CC(CSc1nc(-c2ccc(F)cc2)c(-c2ccc(F)cc2)[nH]1)Sc1nc(-c2ccc(F)cc2)c(-c2ccc(F)cc2)[nH]1 (stereo not drawn) | 243 to 245
CCn1cc(C(=O)O)c(=O)c2cc(F)c(N3CCNC(COC)C3)cc21 (stereo not drawn) | 169 to 170
CCCn1c(=O)c2cc(C(=O)O)cn2c2ccccc21 | 260 to 262
COc1cc(C(=O)CCC(=O)O)ccc1O | 174 to 175
CNCC(=O)N[C@@H](CCCNC(=N)N)C(=O)N[C@@H](CCCNC(=N)N)C(=O)N[C@@H](C)P(=O)(O)O | 220
O=C(O)c1cc2ccccc2nc1N[C@H](Cc1ccccc1)C(=O)O | 140 to 142
O=[N+]([O-])c1cc(Cl)c(Cl)cc1N[C@H]1C=C[C@@H](CO)C1 | 94.5 to 96.5
C[C@H](NC(=O)OCc1ccccc1)C(=O)N[C@@H](C)C(=O)NC1CCCCC1 | 233 to 234
Cc1cc(Br)cnc1CCCCNC1=NS(=O)(=O)N=C1N | 219 to 220

SMILES | melting point [°C]
CCOC(=O)C(C)(C)c1ccc(CCNC(=O)c2ccc(Cl)cc2)cc1 | 108 to 109
CC(CCc1ccc(F)cc1)(Cn1ccnc1)Sc1cc(Cl)ccc1Cl (stereo not drawn) | 148
CC(C)(C)OC(=O)n1c(C#N)ccc1-c1ccc2c(c1)C(C)(C)OC(=O)N2 | 165 to 167
CC=Cc1cccc2c1OC(c1ccccc1)CC2=O (stereo not drawn) | < 50
CCCn1cnc2c1c(=O)n(CC(C)(O)C#CCN(CC)CC)c(=O)n2C (stereo not drawn) | 109
Cc1c(CC(=O)O)c2cc(OCc3ccc4ccccc4n3)ccc2n1C | 186 to 188
CC(=O)OCCCS(=O)(=O)c1ccc(S(N)(=O)=O)s1 | 103 to 104
CCCCCc1ccc(CCc2ccc(-c3ccc(OC(F)(F)F)cc3)cc2)cc1 | 60
CCC1(CC)CSSC[C@@H](C(=O)O)NC1=O | 127 to 128
COc1cc(C)c(Cl)c2c(=O)oc3c(c12)C(=O)c1cccc(O)c1C3=O | 294 to 296
N#Cc1ccc(Sc2ccc3cc(Br)ccc3c2)cc1C(F)(F)F | 114 to 116
CC(C)(C)c1cc(N=Nc2cc(Cl)ccc2Cl)c(O)c(C(C)(C)C)c1 | 121 to 126
CCOC(=O)c1c[nH]c2nc(N3CCN(C(C)=O)CC3)c(F)cc2c1=O | 290 to 295
COc1ccccc1NC(=O)Nc1nc(N2CCN(c3ccccc3OC(C)C)CC2)nc(N(CCC(=O)O)Cc2ccc(Cl)c(Cl)c2)n1 | 115 to 118
CN(C)N1CSC(=CCc2cc(C(C)(C)C)c(O)c(C(C)(C)C)c2)C1=O | 181 to 186
O=C(O)c1conc1-c1ccccc1 | 163 to 164
COc1cc(CCC(=O)CC(=O)c2ccc(F)cc2)ccc1O | 56 to 57
COc1ccc(CN(C)CC=Cc2ccc(NC(=O)c3cccc4c(=O)c5cccc(OC)c5[nH]c34)cc2)cc1OC | 200
CC(=O)Nc1ccc(Cc2nc3c(c4c2[nH]c2ccccc24)C(=O)CC(C)(C)C3)cc1 | 153 to 154
CN1CC(=O)Nc2cccnc2C1=O | 272 to 274
CON1CCC2(CC1)NC(=O)C(c1c(C)cc(C)cc1C)=C2OCc1ccccc1 | 184 to 186
CC(C)N1C(=O)C2CC(c3ccc(N)cc3)(C2)C1=O | 191 to 201
CC(C)Cn1c(CO)c(-c2ccccc2)c2cc(Br)ccc2c1=O | 176 to 177
O=C1NCC(Cc2ccccc2C(F)(F)F)O1 (stereo not drawn) | 142 to 143
O=C(NC12CC3CC(CC(C3)C1)C2)OCCc1cccs1 | 67 to 69

SMILES | melting point [°C]
COC(=O)C(C)Oc1ccc(C(C)=O)cc1 (stereo not drawn) | 54.8
CCc1nnc(-c2ccc(C)c(-c3ccc(F)cc3)n2)nc1CC | 108
CC(C)[C@H](NS(=O)(=O)c1ccc2c(Cl)cnc(Cl)c2c1)C(=O)OC(C)(C)C | 127 to 129
CCCCc1nn(-c2ccc(C(F)(F)F)cn2)cc1CCC(=O)OCC | 63 to 64
NC(=O)c1cccc(Nc2ccncc2)c1 | 201 to 203
Nc1nc2c(ncn2CCC(COC=O)COC=O)c(=O)[nH]1 | 195 to 198
COc1cc2c(cc1Cl)CC(C)=NN=C2c1ccc(N)cc1 | 198 to 200
Cc1ccccc1NC(=O)c1ccc(-n2nc(C3CC3)cc2C2CC2)nc1 | 123 to 126
COC(=O)c1ccc(Cl)c(CN2CCN(C)C2=O)c1Cl | 59
CN(C)CCCN1C(=O)Nc2ccccc2C1C1CCCCC1 (stereo not drawn) | 124 to 125
CN1CC(O)c2cc(S(N)(=O)=O)sc2S1(=O)=O (single isomer, unassigned; (+)) | 168
O=[N+]([O-])c1ccc(OCc2ccccc2)cc1OCc1ccccc1 | 101 to 103
COC(=O)CNC(=O)c1ccc(Cl)c(Cl)c1 | 133 to 134
CN1C(=O)C(=O)c2cnccc21 | 140 to 142
CNC1Oc2cc(Cl)cc(-c3cc(F)ccc3F)c2O1 (stereo not drawn) | > 250
CC1(C)NC(=O)OC12CCNCC2 | 38 to 40
O=C(c1cc2cc(OCCNC[C@H](O)COc3ccccc3)ccc2[nH]1)N1CCCC1 | 110 to 115
CC1(C)N=C(NC#N)N=C(NC(=O)c2nc(Cl)c(N)nc2N)N1 | 342
O=S(=O)(c1ccc(OCCO)cc1)C(Br)(Br)Br | 157 to 162
CC(C)CNC(=O)c1ccc(C2(F)CC2c2ccc(Cl)cc2)cc1 (stereo not drawn) | 140
C=CCn1c(C)nc2c3c(c(C(=O)OCC)cc21)CCC1(Cc2ccccc2C1)N3 | 150
CC(F)(F)c1cccc(C[C@@H](NC(=O)c2ccc(F)c3ccccc23)[C@@H](O)c2ccc(F)cc2)c1 (racemic) | 182 to 183
CC[C@H](c1ccc(C(F)(F)F)cc1)N(Cc1ccc(C(=O)O)cc1)S(=O)(=O)c1ccc(Cl)cc1 | 105 to 107
O=C(O)C1CC2CCC1c1[nH]c3ccccc3c12 (stereo not drawn) | 212 to 214
C=CCn1cc(Cc2ccc(C(=O)O)cc2OC)c2cc(C=C(C)C(=O)NCCC)ccc21 | 84 to 90

SMILES | melting point [°C]
Cc1nc(N)c2nc(C)n(CCNC(=O)C(C)C)c2c1C | 220 to 222
O=C(CO)NCCCCCCCCCCCCNC(=O)CO | 94 to 97
Cc1ccc(C)c(C2=C(O)C(CC3CCS(=O)(=O)CC3)NC2=O)c1 (stereo not drawn) | 244 to 246
CSC1C(O)C(CO)OC1n1ccc(NC(=O)c2ccccc2)nc1=O (stereo not drawn) | 193 to 194
Cc1ccc2c(c1)C=Cc1cc(C)ccc1C2c1cn(-c2cc(N(C)CC(=O)Nc3nc(CC(=O)O)cs3)ncn2)c(=O)[nH]c1=S | 215
CC(=O)N1C(C)(C)CC(OC(=O)C(Cc2cc(C(C)(C)C)c(O)c(C(C)(C)C)c2)(Cc2cc(C(C)(C)C)c(O)c(C(C)(C)C)c2)C(C)=O)CC1(C)C | 165 to 166
COc1cc(C=CC(=O)CCCOc2ccccc2)ccc1O | 67 to 70
CCN(CC)C(=O)NC1CC2c3cccc4[nH]c(CCc5ccc(OC)cc5)c(c34)CC2N(C)C1 (stereo not drawn) | 147 to 149
N#CC1=CCN(c2ncccc2F)CC1 | 76 to 77
Cc1csc(C#CCCn2nc3ccccc3n2)n1 | 78 to 80
COc1ccc(C(=O)/C=C/c2ccc3c(c2)OCO3)c(OC)c1 | 137
Cc1ccc(S(=O)(=O)N2CC2c2ccccc2)cc1 (stereo not drawn) | 92 to 94
COc1ccc2c(C3=C(c4cn(C)c5cc([N+](=O)[O-])ccc45)C(=O)NC3=O)cn(C)c2c1 | 308 to 310
Cc1cccc2c(=O)[nH]c(CCN3CCCC(O)C3)cc12 (stereo not drawn) | 180 to 181
O=C(NCCCCCCCCCCCCNC(=O)c1ccc(OC(F)(F)F)cc1)c1ccc(OC(F)(F)F)cc1 | 158 to 159
N=C(N)Nc1ccc(S(=O)(=O)N2CCOCC2)cc1 | 102 to 105
NS(=O)(=O)c1ccc(-c2cc(-c3nc(-c4ccc(F)c(F)c4)cc(C(F)(F)F)n3)ccn2)s1 | 281
COc1cccc(-c2cccc3c2CCn2cc(-c4ccccc4)nc2C3OC2CCN(C)CC2)c1 (stereo not drawn) | 93
CCOC(=O)c1c(C)cc2c(c1C)c(=O)n(-c1ccccc1Cl)c(=O)n2CC(=O)NCCN(CC)CC | 193 to 194
CC(C)(C)OC(=O)NC1CCC2(CC1)CSC1=C(O2)c2ccccc2C(=O)C1=O (stereo not drawn) | 224 to 225
Cc1cc(-c2ccc(C(F)(F)F)cc2)nc(-c2cccc(-c3ccc(S(N)(=O)=O)s3)c2)n1 | 225
CC(C)(C)OC(=O)Nc1sc(-c2cccnc2)nc1C(F)(F)F | 145 to 147
CC1CCN(c2ncc(Br)cc2C=O)C1 (stereo not drawn) | 72 to 73
